Broadly, the chromatographic logP is a lipophilicity value derived from retention on a column.

One series concerns Fusarium proliferatum. Kind of series: microbe, parasite or virus in culture. As to conditions: 144 h, read-out: pI50 Wachstum. It counts as cell-based.
For the next series, the system named is Alternaria solani. Briefly: Alternaria test (tomato) / protective. The series is classed as in vivo.
The subject of a further series is Venturia inaequalis. The series is classed as in vivo. As to conditions: 240 h, 100 ppm. The source says:
Lösungsmittel: 24,5 Gewichtsteile Aceton 24,5 Gewichtsteile Dimethylacetamid Emulgator : 1 Gewichtsteil Alkyl-Aryl-Polyglykolether Zur […] und Emulgator und verdünnt das Konzentrat mit Wasser auf die gewünschte Konzentration. Zur Prüfung auf protektive Wirksamkeit werden junge Pflanzen mit der Wirkstoffzubereitung in der angegebenen Aufwandmenge besprüht. Nach Antrocknen des Spritzbelages werden die Pflanzen mit einer wäßrigen Konidiensuspension des […] Venturia inaequalis inokuliert und verbleiben dann 1 Tag bei ca. 20°C und 100% relativer Luftfeuchtigkeit in einer Inkubations-kabine. Die Pflanzen werden dann im Gewächshaus bei ca. 21°C und einer relativen Luftfeuchtigkeit von ca. 90% aufgestellt. 10 Tage nach der Inokulation erfolgt die Auswertung. Dabei bedeutet 0% ein Wirkungsgrad, der demjenigen der Kontrolle entspricht, während ein Wirkungsgrad von 100% bedeutet, daß kein Befall beobachtet wird.

The next series has as its system Fumonisin FB1. Briefly: Production of fumonisin FB1 by Fusarium proliferatum (microtiter plate, HPLC-MS/MS). It counts as cell-based. As to conditions: 144 h, read-out: pI50 FB1.
In series [1] the test system is Fusarium nivale (var.majus). It counts as in vivo. To be noted: 120 h, 1000 ppm. The text has this: […]-Dimethylacetamid Emulgator: 1 Gewichtsteil Alkylarylpolyglykolether Zur […] und Emulgator und verdünnt das Konzentrat mit Wasser auf die gewünschte Konzentration. Zur Prüfung auf protektive Wirksamkeit besprüht man junge Pflanzen mit der Wirkstoffzubereitung in der angegebenen Aufwandmenge. Nach Antrocknen des Spritzbelages werden die Pflanzen mit Sporen mit einer Sporensuspension von Fusarium nivale (var.majus) besprüht. Die Pflanzen werden in einer Gewächshauskammer unter […] Inkubationshaube bei 10°C und 100 % relativer Luftfeuchtigkeit gestellt. 5 Tage nach der Inokulation erfolgt die Auswertung. Dabei bedeutet 0 % ein Wirkungsgrad, der demjenigen der Kontrolle entspricht, während ein Wirkungsgrad von 100 % bedeutet, dass kein Befall beobachtet wird.

The test system of a further series is Puccinia recondita. Kind of series: Puccinia test (wheat) / protective. The series is classed as in vivo.
[2] abbreviates: 500ppm active compound, wheat, protective, evaluation 7-9 days after inoculation.

With `O=c1[nH]c(Nc2ccccc2)ncc1Br` [IX-1, 2-Anilino-5-brompyrimidin-4(3H)-on], in “physchem” (pH 2.3), the chromatographic logP turned out to be 1.62.

Regarding `FC(F)CNc1nc(Nc2ccccc2)ncc1Cl` [Verbindung 1, 5-Chlor-N^4-(2,2-difluorethyl)-N^2-phenylpyrimidin-2,4-diamin], the IC50 is 7.94 µM in the series on Fusarium proliferatum and 3.16 µM in the series on Fumonisin FB1. Further, the Wirkungsgrad is not below 70% in the series on Alternaria solani (168 h, 500 ppm); not below 70% with Venturia inaequalis; not below 70% in series [1]. In the series “physchem” (pH 2.3), this compound showed a chromatographic logP of 1.89.

Turning to `CC(Nc1nc(Nc2ccccc2)ncc1Cl)C(F)(F)F` (centres unmarked) [Verbindung 2], in “physchem” (pH 2.3), the chromatographic logP was determined as 2.87.

`FC(F)(F)CNc1nc(Nc2ccccc2)ncc1Cl` [Verbindung 3, 5-Chlor-N^2-phenyl-N^4-(2,2,2-trifluorethyl)pyrimidin-2,4-diamin]: the IC50 in the series on Fusarium proliferatum was 12.6 µM; in the series on Fumonisin FB1, 2 µM. Besides, the Wirkungsgrad (with Venturia inaequalis; in the series with Puccinia recondita (500 ppm); in series [1]) was not below 70% each time. In addition, the chromatographic logP in the series “physchem” (pH 2.3) amounted to 2.56; in “physchem” (pH 7.8), 3.09.

In the series with Alternaria solani (168 h, 500 ppm), `N#Cc1cccc(Nc2ncc(Cl)c(NCC(F)(F)F)n2)c1` [Verbindung 4] showed a Wirkungsgrad not below 70%. In the series “physchem” (pH 2.7), this compound had a chromatographic logP of 2.67.

Turning to `COc1cc(Nc2ncc(Cl)c(NCC(F)(F)F)n2)ccc1NC(C)=O` [Verbindung 5], the Wirkungsgrad in the series on Puccinia recondita (500 ppm) is on record as not below 70%. Besides, the chromatographic logP in the series “physchem” (pH 2.7) was determined as 1.75.

For the compound `COc1cccc(Nc2ncc(Cl)c(NCC(F)(F)F)n2)c1` [Verbindung 6], the figures for the IC50 in the series on Fusarium proliferatum and in the series with Fumonisin FB1 were 3.16 µM and 1.58 µM, respectively. In the series with Puccinia recondita (500 ppm), this compound returned a Wirkungsgrad not below 70%. In “physchem” (pH 2.7), this compound had a chromatographic logP of 2.55.

In the case of `COc1ccc(Nc2ncc(Cl)c(NCC(F)(F)F)n2)cc1` [Verbindung 7], the chromatographic logP in “physchem” (pH 2.7) was determined as 2.06.

As for `N#Cc1ccc(Nc2ncc(Cl)c(NCC(F)(F)F)n2)cc1` [Verbindung 8], the chromatographic logP in the series “physchem” (pH 2.7) stood at 2.77.

`FC(F)(F)CNc1nc(Nc2cccc(OC(F)(F)F)c2)ncc1Cl` [Verbindung 9] showed a chromatographic logP in “physchem” (pH 2.7) of 3.72.

`CS(=O)(=O)c1ccc(Nc2ncc(Cl)c(NCC(F)(F)F)n2)cc1` [Verbindung 10] displayed a chromatographic logP in “physchem” (pH 2.7) of 2.21.

Compound `CN(C)S(=O)(=O)c1ccc(Nc2ncc(Cl)c(NCC(F)(F)F)n2)cc1` [Verbindung 11] gave a chromatographic logP in “physchem” (pH 2.7) of 2.64.

`CSc1ccc(Nc2ncc(Cl)c(NCC(F)(F)F)n2)cc1Cl` [Verbindung 12] yielded a chromatographic logP in “physchem” (pH 2.7) of 3.55.

In turn, `CC(=O)Nc1ccc(Nc2ncc(Cl)c(NCC(F)(F)F)n2)cc1` [Verbindung 13] showed a Wirkungsgrad in the series on Puccinia recondita (500 ppm) not below 70%. In “physchem” (pH 2.7), this compound came in with a chromatographic logP of 1.54.

For the compound `CC(=O)Nc1ccc(Nc2ncc(Cl)c(NCC(F)(F)F)n2)cc1Cl` [Verbindung 14], the chromatographic logP in “physchem” (pH 2.7) came out at 2.04.

Regarding `CCN(C(C)=O)c1ccc(Nc2ncc(Cl)c(NCC(F)(F)F)n2)cc1` [Verbindung 15], the Wirkungsgrad in the series on Alternaria solani (168 h, 500 ppm) is reported as not below 70%; in the series with Puccinia recondita (500 ppm), not below 70%. For the same compound, the chromatographic logP in the series “physchem” (pH 2.7) amounted to 2.13.

As to `CC(=O)N(C)c1ccc(Nc2ncc(Cl)c(NCC(F)(F)F)n2)cc1` [Verbindung 16], the Wirkungsgrad in the series with Alternaria solani (168 h, 500 ppm) was not below 70%; in the series with Puccinia recondita (500 ppm) it was not below 70%. In addition, in “physchem” (pH 2.7), the chromatographic logP was 1.92.

The compound `O=C(Nc1ccc(Nc2ncc(Cl)c(NCC(F)(F)F)n2)cc1)C(F)(F)F` [Verbindung 17] came in with a chromatographic logP in “physchem” (pH 2.7) of 2.55.

On to `CC1(C(=O)Nc2ccc(Nc3ncc(Cl)c(NCC(F)(F)F)n3)cc2)CC1` [Verbindung 18], for which the chromatographic logP in the series “physchem” (pH 2.7) was found to be 2.16.

`CC(=O)Nc1cccc(Nc2ncc(Cl)c(NCC(F)(F)F)n2)c1` [Verbindung 19]: the Wirkungsgrad in the series with Puccinia recondita (500 ppm) is recorded as not below 70%. For the same compound, in the series “physchem” (pH 2.7), the chromatographic logP came to 1.66.

The compound `C=C(C)C(=O)Nc1cccc(Nc2ncc(Cl)c(NCC(F)(F)F)n2)c1` [Verbindung 20] had a chromatographic logP in the series “physchem” (pH 2.7) of 2.16.

`CC(C)(C)C(=O)Nc1cccc(Nc2ncc(Cl)c(NCC(F)(F)F)n2)c1` [Verbindung 21] displayed a Wirkungsgrad in the series on Puccinia recondita (500 ppm) not below 70%. In the series “physchem” (pH 2.7), the chromatographic logP is 2.51.

For the compound `CNC(=O)c1ccc(Nc2ncc(Cl)c(NCC(F)(F)F)n2)cc1` [Verbindung 22], in the series “physchem” (pH 2.7), the chromatographic logP is 1.66.

Turning to `CNC(=O)c1cccc(Nc2ncc(Cl)c(NCC(F)(F)F)n2)c1` [Verbindung 23], the Wirkungsgrad in the series on Puccinia recondita (500 ppm) is listed as not below 70%. The compound also displayed a chromatographic logP in the series “physchem” (pH 2.7) of 1.66.

On to `CSc1cccc(Nc2ncc(Cl)c(NCC(F)(F)F)n2)c1` [Verbindung 24], for which the IC50 with Fusarium proliferatum is more than 50.1 µM; in the series on Fumonisin FB1, 31.6 µM. Moreover, the Wirkungsgrad (with Puccinia recondita (500 ppm); in series [1]) was not below 70% in each case. Further, in the series “physchem” (pH 2.7), the chromatographic logP stood at 3.04.

For the compound `CSc1ccc(Nc2ncc(Cl)c(NCC(F)(F)F)n2)cc1` [Verbindung 25], in “physchem” (pH 2.7), the chromatographic logP was found to be 2.92.

The compound `O=S(=O)(c1cccc(Nc2ncc(Cl)c(NCC(F)(F)F)n2)c1)N1CCCCC1` [Verbindung 26] came in with a Wirkungsgrad with Puccinia recondita (500 ppm) not below 70%. For the same compound, the chromatographic logP in the series “physchem” (pH 2.7) was 2.58.

Compound `CC(C)(C)C(=O)Cc1ccc(Nc2ncc(Cl)c(NCC(F)(F)F)n2)cc1` [Verbindung 27] came in with a Wirkungsgrad with Alternaria solani (168 h, 500 ppm) not below 70%. In the series “physchem” (pH 2.7), the chromatographic logP was determined as 3.17.

`CC(=O)c1ccc(Nc2ncc(Cl)c(NCC(F)(F)F)n2)cc1` [Verbindung 28] came in with a chromatographic logP in “physchem” (pH 2.7) of 2.51.

For the compound `CC(=O)c1cccc(Nc2ncc(Cl)c(NCC(F)(F)F)n2)c1` [Verbindung 29], the IC50 was more than 50.1 µM in the series on Fusarium proliferatum and 10 µM in the series with Fumonisin FB1. Further, the Wirkungsgrad (in the series with Puccinia recondita (500 ppm); in series [1]) was not below 70% in each case. Also, the chromatographic logP in the series “physchem” (pH 2.7) turned out to be 2.39.

Consider `O=C1NC(=O)C(c2ccc(Nc3ncc(Cl)c(NCC(F)(F)F)n3)cc2)N1` (centres unmarked) [Verbindung 30], for which the chromatographic logP in the series “physchem” (pH 2.7) amounted to 1.47.

Consider `COC(=O)Nc1ccc(Nc2ncc(Cl)c(NCC(F)(F)F)n2)cc1` [Verbindung 31], for which the chromatographic logP in the series “physchem” (pH 2.7) is 1.85.

In the series “physchem” (pH 2.7), `CCOC(=O)Nc1ccc(Nc2ncc(Cl)c(NCC(F)(F)F)n2)cc1` [Verbindung 32] came in with a chromatographic logP of 2.11.

Consider `CCOC(=O)Nc1cccc(Nc2ncc(Cl)c(NCC(F)(F)F)n2)c1` [Verbindung 33], for which, in the series “physchem” (pH 2.7), the chromatographic logP came to 2.36.

For the compound `COC(=O)Nc1cccc(Nc2ncc(Cl)c(NCC(F)(F)F)n2)c1` [Verbindung 35], the IC50 is 39.8 µM in the series on Fusarium proliferatum and 31.6 µM in the series with Fumonisin FB1. The Wirkungsgrad in the series on Puccinia recondita (500 ppm) is on record as not below 70%. In the series “physchem” (pH 2.7), this compound returned a chromatographic logP of 2.06.

For `CC(C)(CF)C(=O)Nc1cccc(Nc2ncc(Cl)c(NCC(F)(F)F)n2)c1` [Verbindung 37], the Wirkungsgrad in the series on Puccinia recondita (500 ppm) was not below 70%. The chromatographic logP in “physchem” (pH 2.7) was determined as 2.42.

The compound `CC(=O)Nc1cc(Nc2ncc(Cl)c(NCC(F)(F)F)n2)ccc1C` [Verbindung 38] showed a Wirkungsgrad with Puccinia recondita (500 ppm) not below 70%. The compound also gave a chromatographic logP in the series “physchem” (pH 2.7) of 1.61.

As for `COc1cccc(Nc2ncc(Cl)c(NCC(F)F)n2)c1` [Verbindung 39], the IC50 was 10 µM with Fusarium proliferatum and 3.16 µM with Fumonisin FB1. Moreover, the chromatographic logP in “physchem” (pH 2.7) is 1.96.

The compound `CN(C)C(=O)c1ccc(Nc2ncc(Cl)c(NCC(F)F)n2)cc1` [Verbindung 40] displayed a Wirkungsgrad in the series with Puccinia recondita (500 ppm) not below 70%. Moreover, in the series “physchem” (pH 2.7), the chromatographic logP turned out to be 1.55.

With `C=CCNC(=O)c1ccc(Nc2ncc(Cl)c(NCC(F)F)n2)cc1` [Verbindung 41], the Wirkungsgrad with Puccinia recondita (500 ppm) was not below 70%. The compound further yielded a chromatographic logP in the series “physchem” (pH 2.7) of 1.84.

`CC(CC(F)(F)F)Nc1nc(Nc2ccccc2)ncc1Br` (centres unmarked) [Verbindung 42, 5-Brom-N^2-phenyl-N^4-(4,4,4-trifluorbutan-2-yl)pyrimidin-2,4-diamin] displayed a chromatographic logP in the series “physchem” (pH 2.7) of 2.4.

Turning to `Cc1cccc(Nc2ncc(Cl)c(NCC(F)(F)F)n2)c1` [Verbindung 44], the figures for the IC50 in the series on Fusarium proliferatum and with Fumonisin FB1 were 20 µM and 1.26 µM, respectively. The chromatographic logP in “physchem” (pH 2.7) was found to be 2.88.

`Cc1cccc(Nc2ncc(Cl)c(NCC(F)F)n2)c1` [Verbindung 45]: the IC50 was 5.01 µM in the series on Fusarium proliferatum and 1.58 µM with Fumonisin FB1. In the series with Puccinia recondita (500 ppm), the Wirkungsgrad is on record as not below 70%. The chromatographic logP in “physchem” (pH 2.7) was determined as 2.27.

With `O=Cc1cccc(Nc2ncc(Cl)c(NCC(F)(F)F)n2)c1` [Verbindung 46], the Wirkungsgrad with Alternaria solani (500ppm active compound, tomato, protective, evaluation 7 days after inoculation) is not below 70%; with Puccinia recondita (setting [2]) it was not below 70%. The same compound gave a chromatographic logP in the series “physchem” (pH 7.8) of 2.67.

For the compound `O=Cc1cccc(Nc2ncc(Cl)c(NCC(F)F)n2)c1` [Verbindung 47], the Wirkungsgrad with Puccinia recondita (setting [2]) was not below 70%. In addition, the chromatographic logP in the series “physchem” (pH 7.8) was determined as 2.49.

`CN(C)C(=O)c1ccc(Nc2ncc(Cl)c(NCC(F)(F)F)n2)cc1` [Verbindung 48] gave a Wirkungsgrad with Alternaria solani (168 h, 500 ppm) not below 70%. The same compound returned a chromatographic logP in “physchem” (pH 2.7) of 1.93.
